18 molecules from publication PMC6863536, “Natural compounds as angiogenic enzyme thymidine phosphorylase inhibitors: In vitro biochemical inhibition, mechanistic, and in silico modeling studies” (PLoS ONE, 2019) can be followed below.

“Also recorded” adds a separate entry of the source. Like-named read-outs stand apart in the source and are kept apart here.

Data set [1] addresses T1, thymidine phosphorylase (TP) enzyme (Escherichia coli, UniProt P07650).
T1 construct: purchased Sigma Aldrich, USA
The data set is described as follows: Mechanistic (kinetic) studies on TP, Lineweaver-Burk plot and secondary re-plot. The conditions noted are these: for Type of inhibition: Lineweaver-Burk plot, substrate thymidine. Format: biochemical, E. coli. On the procedure: In mechanistic studies, TP enzyme was incubated with different concentrations of inhibitors at 30°C for 10 min. Reaction was then initiated by adding four different concentrations of substrate, i.e. thymidine (0.1875–1.5 mM). Enzyme activity was measured under steady state conditions by measuring changes in absorbance for another 10 min at 30°C at 290 nm, on microtiter plate reader (Spectramax, M5, Molecular Devices, CA, USA). Every experiment is performed in triplicate.
Lineweaver-Burk plot was used to determine the type of inhibition, where the reciprocal of rate of the reaction were plotted against the reciprocal of substrate concentration. Dissociation constant (Ki) were determined by secondary re-plot of Lineweaver-Burk plots. Kinetic data was analysed by GraFit 7 data analysis software (purchased from Erithacus Software Limited, UK).

In data set [2] the target is T2, thymidine phosphorylase (TP), recombinant E. coli TP enzyme (Escherichia coli, UniProt P07650).
T2 construct: purchased Sigma Aldrich, USA
Nature of the data set: Thymidine phosphorylase inhibition assay (spectrophotometric). In kind it is biochemical. The conditions noted are these: 1.5 mM thymidine, 30°C, pH 7.0, 290 nm, test compounds screened at 500 μM. On the procedure: In the current study, we have used commercially available recombinant E. coli TP enzyme, as human TP is not easily accessible.
Thymidine phosphorylase inhibition assay was carried out spectrophotometrically. Briefly, 0.058 U of TP enzyme (E.C. No. 2.4.2.4, E. coli) was incubated with 500 μM of test compounds at 30°C for 10 minutes. After that 1.5 mM of substrate thymidine was added to 96-well plate, and changes in absorbance were monitored for 10 minutes at 290 nm in microtiter plate reader (Spectramax, M5, Molecular Devices, CA, USA). Enzyme and substrate solution were prepared in 50 mM phosphate buffer of pH 7.0, while test compounds were prepared in DMSO (final concentration 4.5%).
Enzyme activity was measured under steady-state conditions by observing changes in absorbance for 10 min (at 290 nm) on microtiter plate reader (Spectra Max M5, Molecular Devices, CA, USA). Changes in absorbance upon addition of test compounds were analyzed with the SoftMax Pro 4.8 software which was purchased from Molecular Devices, CA, USA. To calculate the percent inhibition, following formula was used: % Inhibition = 100-Absorbance of test compound/Absorbance of control×100
Inhibitory potential of test compounds is represented in Figs 1–4 as IC50 value (Inhibitory concentration). […] It was calculated by measuring the effects of different concentrations of inhibitors on the degradation of thymidine. EZ-Fit, Enzyme kinetics software (purchased from Perrella Scientific, Inc., USA) was used to deduce the IC50 values.

Data set [3] is described as follows: In vitro MTT cytotoxicity assay. Format: cell-based, mouse. The conditions noted are these: mouse, 3T3 mouse fibroblast cells, 3T3 cells, 48 hrs incubation, read-out: Cytotoxicity IC50 (μM ± SD). The method, then:
(§1) The reduction of MTT can only occur in metabolically active cell, so the enzyme activity is actually a measure of cell viability.
(§2) Briefly, the mouse fibroblast cells (3T3) were cultured in DMEM media containing 5% FBS, 100 IU/ mL penicillin, and 100 μg/ mL streptomycin. Cell suspension (5×10^4cells/ mL) was dispensed in flat-bottomed 96-well plates, and incubated at 37°C and with 5% CO2. After the overnight incubation, old media was aspirated and fresh media containing different concentrations of compounds (prepared in DMSO) were added, and plate was further incubated for 48 hrs. After that, MTT dye (0.5 mg/ mL) was added into each well, and the plate was further incubated for 4 hrs. Following this, DMSO (100 μL) was added into each well, and the level of MTT reduction to formazan with in the cells was calculated by taking the absorbance at 540 nm using a micro plate reader (Spectra Max plus, Molecular Devices, CA, USA).
(§3) Cellular viability was measured for 10 min, at 570 nm on microtiter plate reader. Changes in absorbance upon addition of test compounds were analyzed with the SoftMax Pro 4.8 software which was purchased from Molecular Devices, CA, USA. Percent inhibition was calculated using the formula mentioned earlier.
(§4) It was calculated by measuring the effects of different concentrations of inhibitors on the growth of cells. EZ-Fit, Enzyme kinetics software was used to deduce the IC50 values.
For orientation: Formazan colour is commonly taken as a measure of viable cells.

Data set [4] concerns mouse fibroblast (3T3) cell line. Nature of the data set: In vitro MTT cytotoxicity assay. The conditions noted are these: 3T3 cells, 48 hrs incubation. In kind it is cell-based. On the procedure: as §1, §2, §3, §4
Where [5] appears, read: read-out: TP Inhibition IC50 (μM ± SEM).
Setting [6] is: thymidine 0.1875–1.5 mM, 30°C, secondary re-plot of Lineweaver-Burk plot, read-out: Ki ± SEM (dissociation constant).

T1 sequence (P07650 whole entry): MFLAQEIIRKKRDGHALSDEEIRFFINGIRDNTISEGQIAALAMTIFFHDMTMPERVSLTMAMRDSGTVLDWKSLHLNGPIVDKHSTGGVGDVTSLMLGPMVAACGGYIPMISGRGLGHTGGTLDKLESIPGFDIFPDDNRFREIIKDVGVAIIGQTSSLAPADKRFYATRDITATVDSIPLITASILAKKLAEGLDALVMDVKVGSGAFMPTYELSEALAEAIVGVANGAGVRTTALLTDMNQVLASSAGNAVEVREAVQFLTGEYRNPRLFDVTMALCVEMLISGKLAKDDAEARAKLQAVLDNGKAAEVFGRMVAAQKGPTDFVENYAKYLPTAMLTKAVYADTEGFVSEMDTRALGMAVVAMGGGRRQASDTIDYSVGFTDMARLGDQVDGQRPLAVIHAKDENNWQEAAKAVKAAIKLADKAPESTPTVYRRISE
T2 sequence (P07650 whole entry): as above

Consider `O=c1[nH]c(=O)c2cc[nH]c2[nH]1` [7-Deazaxanthine, 7-deazaxanthine, reference compound], for which the Type of inhibition result in data set [1] was “Non-competitive”.

By IC50 is commonly meant the midpoint of a concentration-inhibition curve. Turning to `N=C1CCCN1Cc1[nH]c(=O)[nH]c(=O)c1Cl` [Tipiracil, tipiracil, reference compound], in data set [2] (setting [5]), the IC50 was found to be 0.014 ± 0.002 µM.

As usually defined, the Ki is a dissociation constant, usually derived from enzyme kinetics or from competition with a known ligand. With `O=c1ccc2ccccc2o1` [Compound 6, coumarin], in data set [1], the Type of inhibition result is recorded as “Uncompetitive”. In data set [1] (setting [6]), the Ki was 171 ± 0.001 µM. Moreover, the IC50 in data set [2] (setting [5]) was 420 ± 6.15 µM.

In the case of `COc1cc2ccc(=O)oc2cc1O` [Compound 9], the Type of inhibition result in data set [1] is recorded as “Non-competitive”. Further, in data set [1] (setting [6]), the Ki came to 419 ± 0.001 µM. Also, in data set [2] (setting [5]), the IC50 worked out at 193.4 ± 1 µM.

Take `O=c1cc(-c2ccccc2)oc2ccccc12` [Compound 1]: in data set [3], the IC50 at 48 h was 29.1 ± 0.61 µM. Further, the Type of inhibition entry in data set [1] is given as “Uncompetitive”. Besides, in data set [1] (setting [6]), the inhibition constant Ki was found to be 225 ± 0.002 µM. For the same molecule, in data set [2] (setting [5]), the IC50 is 195.1 ± 1.1 µM.

As to `COc1c2ccoc2cc2oc(=O)ccc12` [Compound 7], the IC50 in data set [2] (setting [5]) is 344.2 ± 1.2 µM.

Consider `COc1c(O)cc2oc(-c3ccc(O)c(O)c3)c(O)c(=O)c2c1O` [Compound 5], for which the Type of inhibition result in data set [1] is given as “Mixed”. Besides, the Ki in data set [1] (setting [6]) was determined as 341.1 ± 0.01 µM. In addition, in data set [2] (setting [5]), the IC50 stood at 76.8 ± 1.1 µM.

Regarding `C[C@H](Cc1ccc(O)c(O)c1)[C@@H](C)Cc1ccc(O)c(O)c1` [Compound 18, Masoprocol], the “Cytotoxicity IC50 (μM ± SD)” value in data set [4] is on record as “non-toxic; also recorded: non-cytotoxic”. For the same molecule, the Type of inhibition result in data set [1] is recorded as “competitive inhibitor”. For the same molecule, the Ki in data set [1] (setting [6]) stood at 25.6 ± 0.008 µM. The IC50 in data set [2] (setting [5]) was 44 ± 0.5 µM.

`COc1cc(C(=O)O)ccc1O` [Compound 17, Vanillic acid]: the “TP Inhibition IC50 (μM ± SEM)” value in data set [2] was “inactive”.

Consider `C[C@@H]1C[C@@H]([C@H](O)CC2CC(=O)NC(=O)C2)C(=O)[C@@H](C)C1` [Cyclohexamide, cycloheximide, reference compound], for which, in data set [4] (read-out: Cytotoxicity IC50 (μM ± SD)), the IC50 was determined as 0.2 ± 0.1 µM.

As for `CC1(C)C=Cc2c(ccc3ccc(=O)oc23)O1` [Compound 8], the Type of inhibition entry in data set [1] is reported as “Uncompetitive”. The inhibition constant (Ki) in data set [1] (setting [6]) came to 162 ± 0.001 µM. The IC50 in data set [2] (setting [5]) was determined as 181.1 ± 0.6 µM.

On to `COc1cc2c(cc1OC)-c1c(OC)c(OC)cc3c1[C@H](C2)N(C)CC3` [Compound 11, Glaucine HBr], for which, in data set [1], the Type of inhibition entry is reported as “Uncompetitive”. Besides, in data set [1] (setting [6]), the Ki came out at 180 ± 0.01 µM. Moreover, the IC50 in data set [2] (setting [5]) was found to be 238.5 ± 2.1 µM.

Regarding `O=c1cc(-c2ccccc2)oc2cc(O)cc(O)c12` [Compound 4], the “TP Inhibition IC50 (μM ± SEM)” value in data set [2] is “inactive”.

For `O=C(O)/C=C/c1ccccc1` [Compound 15, Cinnamic acid], in data set [2] (TP Inhibition IC50 (μM ± SEM)), the IC50 amounted to 349.7 ± 1.4 µM.

On to `O=C(O)c1cc(O)c(O)c(O)c1` [Compound 16, Gallic acid], for which, in data set [2], the “TP Inhibition IC50 (μM ± SEM)” value is “inactive”.

For `COc1cc(O)c2c(=O)cc(-c3c(OC)ccc(O)c3O)oc2c1` [Compound 2], the IC50 in data set [2] (setting [5]) is 113 µM.

Turning to `O=c1cc(-c2ccc(O)cc2)oc2cc(O)cc(O)c12` [Compound 3], the “TP Inhibition IC50 (μM ± SEM)” value in data set [2] is “inactive”.

As to `COc1cc2ccc(=O)oc2cc1O[C@@H]1O[C@H](CO[C@@H]2OC[C@](O)(CO)[C@H]2O)[C@@H](O)[C@H](O)[C@H]1O` [Compound 10], in data set [1], the Ki was 145 ± 0.001 µM and the Type of inhibition entry is reported as “Uncompetitive”. Moreover, in data set [2] (TP Inhibition IC50 (μM ± SEM)), the 50% inhibitory concentration (IC50) worked out at 295.2 ± 2 µM.
